Laboratory results: patent publication US6730792B2, “β3 adrenergic agonists” (Eli Lilly and Company, priority 2000, dated 2004)

Target: T1, human β3 adrenergic receptor (Homo sapiens, UniProt P13945)
T1 construct: expressed in transfected cells; host or cells: DXB-11 Chinese hamster ovary (CHO) cell line, stably transfected (phd expression vector)
Test: whole cell receptor coupled c-AMP assay, human β3 receptor in CHO cells (EC50, Emax relative to isoproterenol)
Assay type: cell-based
Method in brief: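 Stably transfected DXB-11 CHO cells (20,000/well) were exposed to compound for 20 min at 37 °C in HBSS/HEPES buffer with 1 mM IBMX, pH 7.4. cAMP was measured by SPA. EC50 came from a four-parameter logistic fit, and Emax is the maximal response as a percentage of isoproterenol's.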

[1] = Emax ± SEM, average of at least 3 runs except as otherwise indicated, tested as the isolated form listed
[2] = % intrinsic activity relative to isoproterenol maximal response, average of at least 3 runs, c-AMP in transfected CHO cells

T1 sequence (P13945 whole entry): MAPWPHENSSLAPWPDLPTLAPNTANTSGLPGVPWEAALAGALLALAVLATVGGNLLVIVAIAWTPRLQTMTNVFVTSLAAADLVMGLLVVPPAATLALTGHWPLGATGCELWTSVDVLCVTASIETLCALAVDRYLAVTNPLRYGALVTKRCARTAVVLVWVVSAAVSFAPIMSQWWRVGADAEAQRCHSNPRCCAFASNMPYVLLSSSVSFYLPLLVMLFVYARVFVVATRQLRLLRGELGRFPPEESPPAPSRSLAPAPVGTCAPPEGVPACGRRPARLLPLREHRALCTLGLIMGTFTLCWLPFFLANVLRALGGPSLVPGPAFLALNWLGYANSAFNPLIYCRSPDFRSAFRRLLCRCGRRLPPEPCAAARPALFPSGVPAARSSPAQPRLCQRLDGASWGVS

Structure (SMILES)	Emax (%) ± SEM [1] [%]	Emax (%) ± SEM [2] [%]
CC(C)(Cc1ccc(Oc2ccc(C#N)o2)cc1)NC[C@H](O)COc1ccccc1-c1nccs1.O=C(O)C(F)(F)F [Example 330]	55.9 ± 2.8	
CC(C)(Cc1ccc(Oc2ccc(C#N)nc2)cc1)NC[C@H](O)COc1ccccc1-c1ncco1.O=C(O)C(F)(F)F [Example 364]	69.2 ± 2.5	
CC(C)(Cc1ccc(Oc2ccccc2C(N)=O)cc1)NC[C@H](O)COc1ccccc1-c1ncco1.O=C(O)C(F)(F)F [Example 365]	80.2 ± 5.6	
CC(C)(Cc1ccc(Oc2ccc(C(N)=O)cn2)cc1)NC[C@H](O)COc1ccccc1-c1cc2ccccc2o1 [Example 370]		40.3 ± 2.8
CC(C)(Cc1ccc(Oc2ncccc2C#N)cc1)NC[C@H](O)COc1ccccc1-c1cc2ccccc2o1 [Example 371]		38.9 ± 3.9
CC(C)(Cc1ccc(Oc2ncccc2C(N)=O)cc1)NC[C@H](O)COc1ccccc1-c1cc2ccccc2o1 [Example 372]		56.3 ± 4.8
CC(C)(Cc1ccc(Oc2ccc(C#N)cn2)cc1)NC[C@H](O)COc1ccccc1-c1ccncc1 [Example 373]		29.0 ± 6.8
CC(C)(Cc1ccc(Oc2ccc(C(N)=O)cn2)cc1)NC[C@H](O)COc1ccccc1-c1ccncc1 [Example 374]		49.3 ± 0.3
CC(C)(Cc1ccc(Oc2ncccc2C#N)cc1)NC[C@H](O)COc1ccccc1-c1ccncc1 [Example 375]		35.1 ± 7.3
CC(C)(Cc1ccc(Oc2ncccc2C(N)=O)cc1)NC[C@H](O)COc1ccccc1-c1ccncc1 [Example 376]		48.2 ± 6.7
CC(C)(Cc1ccc(Oc2ccc(S(C)(=O)=O)cc2)cc1)NC[C@H](O)COc1ccccc1-c1ccncc1.Cl.Cl [Example 377]		33.0 ± 4.2
CC(C)(Cc1ccc(Oc2ccc(C#N)cn2)cc1)NC[C@H](O)COc1ccccc1-c1ccsc1 [Example 378]		60.2 ± 3.2
CC(C)(Cc1ccc(Oc2ccc(C(N)=O)cn2)cc1)NC[C@H](O)COc1ccccc1-c1ccsc1 [Example 379]		37.7 ± 1.6
CC(C)(Cc1ccc(Oc2ncccc2C#N)cc1)NC[C@H](O)COc1ccccc1-c1ccsc1 [Example 380]		57.4 ± 4.1
CC(C)(Cc1ccc(Oc2ncccc2C(N)=O)cc1)NC[C@H](O)COc1ccccc1-c1ccsc1.O=C(O)C(F)(F)F [Example 381]		58.5 ± 6.9
CC(C)(Cc1ccc(Oc2ccc(S(C)(=O)=O)cc2)cc1)NC[C@H](O)COc1ccccc1-c1ccsc1.Cl [Example 382]		32.3 ± 1.9
CC(C)(Cc1ccc(Oc2ccc(S(C)(=O)=O)cc2)cc1)NC[C@H](O)COc1ccccc1-c1cccs1.Cl [Example 383]		52.1 ± 5.4
CC(C)(Cc1ccc(Oc2ccc(C#N)cn2)cc1)NC[C@H](O)COc1ccccc1-c1cc2ccccc2s1 [Example 384]		45.4 ± 5.6
CC(C)(Cc1ccc(Oc2ccc(C(N)=O)cn2)cc1)NC[C@H](O)COc1ccccc1-c1cc2ccccc2s1 [Example 385]		43.1 ± 4.3
CC(C)(Cc1ccc(Oc2ncccc2C#N)cc1)NC[C@H](O)COc1ccccc1-c1cc2ccccc2s1 [Example 386]		46.9 ± 6.7
CC(C)(Cc1ccc(Oc2ncccc2C(N)=O)cc1)NC[C@H](O)COc1ccccc1-c1cc2ccccc2s1.O=C(O)C(F)(F)F [Example 387]		78.7 ± 14.9
CC(C)(Cc1ccc(Oc2ccc(C#N)cn2)cc1)NC[C@H](O)COc1ccccc1-c1cccnc1 [Example 388]		<10
CC(C)(Cc1ccc(Oc2ccc(C(N)=O)cn2)cc1)NC[C@H](O)COc1ccccc1-c1cccnc1 [Example 389]		20.3 ± 2.0

Structure (SMILES)	Emax (%) ± SEM [1] [%]	Emax (%) ± SEM [2] [%]
CC(C)(Cc1ccc(Oc2ncccc2C#N)cc1)NC[C@H](O)COc1ccccc1-c1cccnc1 [Example 390]		14.4 ± 1.7
CC(C)(Cc1ccc(Oc2ncccc2C(N)=O)cc1)NC[C@H](O)COc1ccccc1-c1cccnc1 [Example 391]		22.5 ± 1.5
CC(C)(Cc1ccc(Oc2ccc(S(C)(=O)=O)cc2)cc1)NC[C@H](O)COc1ccccc1-c1cccnc1.Cl.Cl [Example 392]		17.6 ± 0.4
CC(C)(Cc1ccc(Oc2ccc(S(C)(=O)=O)cc2)cc1)NC[C@H](O)COc1ccccc1-c1ccc(Cl)s1.Cl [Example 393]		50.0 ± 3.6
CC(=O)c1ccc(-c2ccccc2OC[C@@H](O)CNC(C)(C)Cc2ccc(Oc3ccc(S(C)(=O)=O)cc3)cc2)s1.Cl [Example 394]		76.9 ± 5.0
CC(C)(Cc1ccc(Oc2ccc(S(C)(=O)=O)cc2)cc1)NC[C@H](O)COc1ccccc1-c1ccco1.Cl [Example 395]		46.6 ± 5.9
Cc1ccc(-c2ccccc2OC[C@@H](O)CNC(C)(C)Cc2ccc(Oc3ccc(S(C)(=O)=O)cc3)cc2)s1.Cl [Example 396]		50.5 ± 1.9
Cc1ccc(-c2ccccc2OC[C@@H](O)CNC(C)(C)Cc2ccc(Oc3ccc(C#N)cn3)cc2)s1.Cl [Example 405]		64.4 ± 7.1
CC(C)(Cc1ccc(Oc2ccc(C#N)cn2)cc1)NC[C@H](O)COc1ccccc1-c1ccc(Cl)s1.O=C(O)C(F)(F)F [Example 406]		55.8 ± 7.1
CC(=O)c1ccc(-c2ccccc2OC[C@@H](O)CNC(C)(C)Cc2ccc(Oc3ccc(C#N)cn3)cc2)s1.Cl [Example 407]		79.7 ± 7.6
CC(C)(Cc1ccc(Oc2ccc(C#N)cn2)cc1)NC[C@H](O)COc1ccccc1-c1ccco1.Cl [Example 408]		74.0 ± 6.5
Cc1ccc(-c2ccccc2OC[C@@H](O)CNC(C)(C)Cc2ccc(Oc3ccc(C(N)=O)cn3)cc2)s1.Cl [Example 409]		71.3 ± 3.9
CC(C)(Cc1ccc(Oc2ccc(C(N)=O)cn2)cc1)NC[C@H](O)COc1ccccc1-c1ccc(Cl)s1.Cl [Example 410]		76.0 ± 5.0
CC(=O)c1ccc(-c2ccccc2OC[C@@H](O)CNC(C)(C)Cc2ccc(Oc3ccc(C(N)=O)cn3)cc2)s1.O=C(O)C(F)(F)F [Example 411]		78.2 ± 9.9
CC(C)(Cc1ccc(Oc2ccc(C(N)=O)cn2)cc1)NC[C@H](O)COc1ccccc1-c1ccco1.Cl [Example 412]		74.4 ± 7.0
Cc1ccc(-c2ccccc2OC[C@@H](O)CNC(C)(C)Cc2ccc(Oc3ncccc3C#N)cc2)s1.Cl [Example 413]		66.9 ± 9.2
CC(C)(Cc1ccc(Oc2ncccc2C#N)cc1)NC[C@H](O)COc1ccccc1-c1ccc(Cl)s1.O=C(O)C(F)(F)F [Example 414]		65.7 ± 11.4
CC(=O)c1ccc(-c2ccccc2OC[C@@H](O)CNC(C)(C)Cc2ccc(Oc3ncccc3C#N)cc2)s1.O=C(O)C(F)(F)F [Example 415]		80.6 ± 5.7
CC(C)(Cc1ccc(Oc2ncccc2C#N)cc1)NC[C@H](O)COc1ccccc1-c1ccco1.Cl [Example 416]		68.9 ± 6.7
Cc1ccc(-c2ccccc2OC[C@@H](O)CNC(C)(C)Cc2ccc(Oc3ncccc3C(N)=O)cc2)s1.Cl [Example 417]		79.3 ± 2.4
CC(C)(Cc1ccc(Oc2ncccc2C(N)=O)cc1)NC[C@H](O)COc1ccccc1-c1ccc(Cl)s1.Cl [Example 418]		74.4 ± 6.5
CC(=O)c1ccc(-c2ccccc2OC[C@@H](O)CNC(C)(C)Cc2ccc(Oc3ncccc3C(N)=O)cc2)s1.O=C(O)C(F)(F)F [Example 419]		87.5 ± 1.8
